ChEMBL document CHEMBL5705893, “Targeting the mitotic checkpoint for cancer therapy with NMS-P715, an inhibitor of MPS1 kinase” (Cancer Res, 2010)
Active and inactive are the calls of the source. The calls are words filed in the database; no cut-off is given here.

Tests used:
Activated CDC42 kinase 1 = Activated CDC42 kinase 1 (Homo sapiens, UniProt Q07912); assay: Inhibition of recombinant ACK1 (unknown origin)
[1] = biological target: Cyclin-dependent kinase 1/cyclin B1 (Homo sapiens, UniProt P06493); assay: Inhibition of recombinant CDK1/CYCB (unknown origin); format: protein-complex assay
[2] = biological target: Serine/threonine-protein kinase haspin (Homo sapiens, UniProt Q8TF76); assay: Inhibition of recombinant Haspin (unknown origin)
Insulin receptor = Insulin receptor (Homo sapiens, UniProt P06213); assay: Inhibition of recombinant IR (unknown origin)
[3] = biological target: Tyrosine-protein kinase JAK1 (Homo sapiens, UniProt P23458); assay: Inhibition of recombinant JAK1 (unknown origin)
[4] = biological target: MAP kinase-interacting serine/threonine-protein kinase 2 (Homo sapiens, UniProt Q9HBH9); assay: Inhibition of recombinant MNK2 (unknown origin)
[5] = biological target: Serine/threonine-protein kinase NIM1 (Homo sapiens, UniProt Q8IY84); assay: Inhibition of recombinant NIM1 (unknown origin)
[6] = biological target: Serine/threonine-protein kinase pim-2 (Homo sapiens, UniProt Q9P1W9); assay: Inhibition of recombinant PIM2 (unknown origin)
[7] = biological target: Serine/threonine-protein kinase PLK1 (Homo sapiens, UniProt P53350); assay: Inhibition of recombinant PLK1 (unknown origin)
[8] = biological target: Proto-oncogene tyrosine-protein kinase receptor Ret (Homo sapiens, UniProt P07949); assay: Inhibition of recombinant RET (unknown origin)
SF-268 = assay: Antiproliferative activity against human SF-268 cells assessed as inhibition of cell growth incubated for 72 hrs by celltiter-glo assay; format: functional, cell-based; conditions: SF-268, 72 h
BT-474 = assay: Antiproliferative activity against human BT-474 cells assessed as inhibition of cell growth incubated for 72 hrs by celltiter-glo assay; format: functional, cell-based; conditions: BT-474, 72 h
T47D = assay: Antiproliferative activity against human T47D cells assessed as inhibition of cell growth incubated for 72 hrs by celltiter-glo assay; format: functional, cell-based
SF-295 = assay: Antiproliferative activity against human SF-295 cells assessed as inhibition of cell growth incubated for 72 hrs by celltiter-glo assay; format: functional, cell-based; conditions: SF-295, 72 h
SNB-19 = assay: Antiproliferative activity against human SNB-19 cells assessed as inhibition of cell growth incubated for 72 hrs by celltiter-glo assay; format: functional, cell-based; conditions: SNB-19, 72 h
HEL = assay: Antiproliferative activity against human HEL cells assessed as inhibition of cell growth incubated for 72 hrs by celltiter-glo assay; format: functional, cell-based
TF-1 = assay: Antiproliferative activity against human TF-1 cells assessed as inhibition of cell growth incubated for 72 hrs by celltiter-glo assay; format: functional, cell-based; conditions: TF-1, 72 h
SKM-1 = assay: Antiproliferative activity against human SKM-1 cells assessed as inhibition of cell growth incubated for 72 hrs by celltiter-glo assay; format: functional, cell-based; conditions: SKM-1, 72 h
Calu-3 = assay: Antiproliferative activity against human Calu-3 cells assessed as inhibition of cell growth incubated for 72 hrs by celltiter-glo assay; format: functional, cell-based; conditions: Calu-3, 72 h
NCI-H226 = assay: Antiproliferative activity against human NCI-H226 cells assessed as inhibition of cell growth incubated for 72 hrs by celltiter-glo assay; format: functional, cell-based; conditions: NCI-H226, 72 h
NCI-H460 = assay: Antiproliferative activity against human NCI-H460 cells assessed as inhibition of cell growth incubated for 72 hrs by celltiter-glo assay; format: functional, cell-based; conditions: NCI-H460, 72 h
NCI-H1770 = assay: Antiproliferative activity against human NCI-H1770 cells assessed as inhibition of cell growth incubated for 72 hrs by celltiter-glo assay; format: functional, cell-based; conditions: NCI-H1770, 72 h
Granta-519 = assay: Antiproliferative activity against human Granta-519 cells assessed as inhibition of cell growth incubated for 72 hrs by celltiter-glo assay; format: functional, cell-based; conditions: Granta-519, 72 h
Toledo = assay: Antiproliferative activity against human Toledo cells assessed as inhibition of cell growth incubated for 72 hrs by celltiter-glo assay; format: functional, cell-based
[9] = Antiproliferative activity against human GM03798 cells assessed as inhibition of cell growth incubated for 72 hrs by celltiter-glo assay; format: functional, cell-based; conditions: GM03798, 72 h
MIA PaCa-2 = assay: Antiproliferative activity against human MIA PaCa-2 cells assessed as inhibition of cell growth incubated for 72 hrs by celltiter-glo assay; format: functional, cell-based; conditions: MIA PaCa-2, 72 h
CAKI-1 = assay: Antiproliferative activity against human CAKI-1 cells assessed as inhibition of cell growth incubated for 72 hrs by celltiter-glo assay; format: functional, cell-based; conditions: CAKI-1, 72 h
SN12C = assay: Antiproliferative activity against human SN12C cells assessed as inhibition of cell growth incubated for 72 hrs by celltiter-glo assay; format: functional, cell-based
U2OS [10] = assay: Induction of mitotic arrest in human U2OS cells expressing YFP-alpha-tubulin assessed as reduction in mitotic-phase length at 1 micromol/L by time-lapse microscopic analysis; format: functional, cell-based; conditions: dose 1.0 µmol/L
U2OS [11] = assay: Induction of mitotic arrest in human U2OS cells expressing YFP-alpha-tubulin assessed as effect on bipolar spindle formation at 1 micromol/L by time-lapse microscopic analysis; format: functional, cell-based; conditions: dose 1.0 µmol/L
HeLa [12] = assay: Induction of mitotic arrest in human nocodazole-arrested HeLa cells assessed as delocalization of MAD1 in presence of MG132; format: functional, cell-based
HeLa [13] = assay: Induction of mitotic arrest in human nocodazole-arrested HeLa cells assessed as delocalization of MAD1 at 1 micromol/L in presence of MG132; format: functional, cell-based; conditions: dose 1.0 µmol/L
HeLa [14] = assay: Induction of mitotic arrest in human nocodazole-arrested HeLa cells assessed as delocalization of BUB3 at 1 micromol/L in presence of MG132; format: functional, cell-based; conditions: dose 1.0 µmol/L
HeLa [15] = assay: Inhibition of cdc20-MAD2 protein-protein interaction in human nocodazole arrested HeLa cells by Coimmunoprecipitation analysis; format: cell-based
A2780 [16] = assay: Induction of apoptosis in human A2780 cells assessed as effect on histone H2AX phosphorylation 0.2 to 1 micromol/L incubated for 2 to 72 hrs by Western blot analysis; format: functional, cell-based; conditions: dose 0.2-1 µmol/L, time 2-72 hrs
HCT-116 [17] = assay: Growth inhibition of human HCT-116 cells at 1 micromol/L incubated for 24 hrs; format: functional, cell-based; conditions: dose 1.0 µmol/L
HCT-116 [18] = assay: Cell cycle arrest in human HCT-116 cells assessed as accumulation of cells at G1 phase at 0.2 to 1 micromol/L incubated for 48 hrs by FACS/PI staining based flow cytometric analysis; format: functional; conditions: dose 0.2-1 µmol/L
A2780 [19] = assay: Induction of apoptosis in human A2780 cells assessed as upregulation of histone H3 dephosphorylation at 0.2 to 1 micromol/L incubated for 2 to 72 hrs by Western blot analysis; format: functional, cell-based; conditions: dose 0.2-1 µmol/L, time 2-72 hrs
HCT-116 [20] = assay: Induction of apoptosis in human HCT-116 cells at 1 micromol/L incubated for 24 to 72 hrs by FACS/PI staining based flow cytometric analysis; format: functional; conditions: dose 1 µmol/L; time 24-72 hrs; at 1 µM
[21] = Volume of distribution at steady state in Athymic nu-nu mouse at 10 mg/kg, iv measured upto 24 hrs by LC-MS/MS analysis; format: ADME, organism-based; conditions: in vivo, read-out: Vdss
[22] = biological target: Epidermal growth factor receptor (Homo sapiens, UniProt P00533)
Description: Inhibition of recombinant EGFR1 (unknown origin)

[23] = biological target: Dual specificity protein kinase TTK (Homo sapiens) (UniProt P33981)
Sequence of Dual specificity protein kinase TTK (Homo sapiens) (P33981 whole entry): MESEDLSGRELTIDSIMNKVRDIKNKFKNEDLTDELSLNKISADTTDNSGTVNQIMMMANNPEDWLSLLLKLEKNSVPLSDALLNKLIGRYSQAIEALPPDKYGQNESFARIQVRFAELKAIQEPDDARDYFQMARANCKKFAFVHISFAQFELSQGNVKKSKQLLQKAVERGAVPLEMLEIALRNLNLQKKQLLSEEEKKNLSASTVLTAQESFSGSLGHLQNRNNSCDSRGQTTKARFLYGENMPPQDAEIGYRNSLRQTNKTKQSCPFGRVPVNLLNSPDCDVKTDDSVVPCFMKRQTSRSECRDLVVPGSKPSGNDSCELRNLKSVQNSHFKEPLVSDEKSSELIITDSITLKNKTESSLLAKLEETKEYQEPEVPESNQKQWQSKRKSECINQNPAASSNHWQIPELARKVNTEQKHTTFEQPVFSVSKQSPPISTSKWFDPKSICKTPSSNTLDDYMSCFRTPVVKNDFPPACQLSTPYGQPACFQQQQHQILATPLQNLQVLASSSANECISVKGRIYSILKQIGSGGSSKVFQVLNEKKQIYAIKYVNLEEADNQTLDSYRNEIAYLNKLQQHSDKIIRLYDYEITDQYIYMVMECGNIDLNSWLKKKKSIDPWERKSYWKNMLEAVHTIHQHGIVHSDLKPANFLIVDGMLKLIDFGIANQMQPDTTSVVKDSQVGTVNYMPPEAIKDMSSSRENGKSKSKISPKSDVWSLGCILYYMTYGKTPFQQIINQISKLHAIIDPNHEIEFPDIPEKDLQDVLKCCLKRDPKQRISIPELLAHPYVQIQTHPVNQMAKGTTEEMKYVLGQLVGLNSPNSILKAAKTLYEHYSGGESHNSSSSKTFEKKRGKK
Description: Binding affinity to recombinant human MPS1 assessed as half life

Sequence of Serine/threonine-protein kinase PLK1 (P53350 whole entry): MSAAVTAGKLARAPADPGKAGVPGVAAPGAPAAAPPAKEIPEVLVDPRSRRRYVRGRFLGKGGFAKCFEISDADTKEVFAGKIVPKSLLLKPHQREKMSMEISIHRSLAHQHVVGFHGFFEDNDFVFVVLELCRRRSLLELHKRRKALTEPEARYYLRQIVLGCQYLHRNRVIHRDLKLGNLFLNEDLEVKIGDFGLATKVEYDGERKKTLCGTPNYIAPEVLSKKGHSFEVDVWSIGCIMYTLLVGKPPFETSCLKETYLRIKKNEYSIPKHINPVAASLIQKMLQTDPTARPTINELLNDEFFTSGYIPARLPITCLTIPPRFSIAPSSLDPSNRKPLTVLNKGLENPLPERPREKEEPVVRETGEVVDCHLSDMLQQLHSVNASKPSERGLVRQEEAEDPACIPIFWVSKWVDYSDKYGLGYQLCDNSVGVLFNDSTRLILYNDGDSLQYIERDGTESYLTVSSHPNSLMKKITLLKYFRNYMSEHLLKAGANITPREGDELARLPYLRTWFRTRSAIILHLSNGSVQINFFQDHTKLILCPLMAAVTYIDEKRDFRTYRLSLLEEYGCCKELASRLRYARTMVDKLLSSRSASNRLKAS
Sequence of Tyrosine-protein kinase JAK1 (P23458 whole entry): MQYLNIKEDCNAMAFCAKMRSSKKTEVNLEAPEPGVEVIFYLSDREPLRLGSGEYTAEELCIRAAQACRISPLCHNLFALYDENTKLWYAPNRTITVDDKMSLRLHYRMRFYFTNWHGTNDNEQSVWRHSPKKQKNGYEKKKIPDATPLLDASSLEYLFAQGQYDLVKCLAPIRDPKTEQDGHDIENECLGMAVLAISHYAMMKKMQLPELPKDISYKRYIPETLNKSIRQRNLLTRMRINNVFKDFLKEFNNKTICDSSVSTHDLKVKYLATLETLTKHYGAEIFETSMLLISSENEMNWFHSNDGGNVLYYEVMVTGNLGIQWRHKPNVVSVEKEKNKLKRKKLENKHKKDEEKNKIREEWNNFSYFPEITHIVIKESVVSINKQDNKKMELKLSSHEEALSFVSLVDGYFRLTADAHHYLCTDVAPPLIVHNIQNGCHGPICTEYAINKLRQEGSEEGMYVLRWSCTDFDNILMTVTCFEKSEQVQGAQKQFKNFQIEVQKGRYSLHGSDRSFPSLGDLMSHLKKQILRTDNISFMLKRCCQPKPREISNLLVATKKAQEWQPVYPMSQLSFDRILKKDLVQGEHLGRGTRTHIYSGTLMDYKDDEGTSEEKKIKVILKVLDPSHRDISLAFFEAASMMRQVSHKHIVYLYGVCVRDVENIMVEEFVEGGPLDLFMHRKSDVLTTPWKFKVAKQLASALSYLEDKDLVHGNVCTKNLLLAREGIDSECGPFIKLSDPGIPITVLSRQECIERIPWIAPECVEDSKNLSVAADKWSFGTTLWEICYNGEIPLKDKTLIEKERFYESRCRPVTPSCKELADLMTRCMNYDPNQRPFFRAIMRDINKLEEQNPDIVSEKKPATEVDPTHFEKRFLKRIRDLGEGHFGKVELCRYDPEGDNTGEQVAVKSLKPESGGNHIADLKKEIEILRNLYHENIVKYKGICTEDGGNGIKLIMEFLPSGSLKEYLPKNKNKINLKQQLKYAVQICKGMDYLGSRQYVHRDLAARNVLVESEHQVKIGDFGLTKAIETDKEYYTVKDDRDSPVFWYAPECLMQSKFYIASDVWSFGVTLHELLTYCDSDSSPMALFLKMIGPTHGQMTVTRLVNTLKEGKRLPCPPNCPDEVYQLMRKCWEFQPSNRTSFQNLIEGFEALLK
Sequence of Cyclin-dependent kinase 1/cyclin B1 (P06493 whole entry): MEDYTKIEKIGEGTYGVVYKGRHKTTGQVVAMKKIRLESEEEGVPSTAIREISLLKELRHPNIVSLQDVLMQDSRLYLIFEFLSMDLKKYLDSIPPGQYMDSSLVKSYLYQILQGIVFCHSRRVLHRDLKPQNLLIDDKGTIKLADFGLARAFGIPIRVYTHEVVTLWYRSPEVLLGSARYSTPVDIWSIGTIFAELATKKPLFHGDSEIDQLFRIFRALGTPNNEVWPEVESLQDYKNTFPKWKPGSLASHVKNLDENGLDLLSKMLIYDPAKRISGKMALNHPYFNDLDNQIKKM
Sequence of Cyclin-dependent kinase 1/cyclin B1 (P14635 whole entry, further chain): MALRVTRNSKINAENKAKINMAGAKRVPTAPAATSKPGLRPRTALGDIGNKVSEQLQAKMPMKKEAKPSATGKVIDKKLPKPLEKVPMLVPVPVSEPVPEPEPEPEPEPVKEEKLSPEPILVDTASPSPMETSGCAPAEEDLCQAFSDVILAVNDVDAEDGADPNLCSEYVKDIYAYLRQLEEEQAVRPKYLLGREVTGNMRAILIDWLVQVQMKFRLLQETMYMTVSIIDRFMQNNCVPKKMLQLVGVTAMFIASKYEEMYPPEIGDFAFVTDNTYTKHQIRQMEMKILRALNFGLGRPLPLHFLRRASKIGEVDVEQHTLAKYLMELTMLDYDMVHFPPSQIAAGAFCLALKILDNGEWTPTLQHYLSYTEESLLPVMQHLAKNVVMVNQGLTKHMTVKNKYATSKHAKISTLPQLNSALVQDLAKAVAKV
Sequence of MAP kinase-interacting serine/threonine-protein kinase 2 (Q9HBH9 whole entry): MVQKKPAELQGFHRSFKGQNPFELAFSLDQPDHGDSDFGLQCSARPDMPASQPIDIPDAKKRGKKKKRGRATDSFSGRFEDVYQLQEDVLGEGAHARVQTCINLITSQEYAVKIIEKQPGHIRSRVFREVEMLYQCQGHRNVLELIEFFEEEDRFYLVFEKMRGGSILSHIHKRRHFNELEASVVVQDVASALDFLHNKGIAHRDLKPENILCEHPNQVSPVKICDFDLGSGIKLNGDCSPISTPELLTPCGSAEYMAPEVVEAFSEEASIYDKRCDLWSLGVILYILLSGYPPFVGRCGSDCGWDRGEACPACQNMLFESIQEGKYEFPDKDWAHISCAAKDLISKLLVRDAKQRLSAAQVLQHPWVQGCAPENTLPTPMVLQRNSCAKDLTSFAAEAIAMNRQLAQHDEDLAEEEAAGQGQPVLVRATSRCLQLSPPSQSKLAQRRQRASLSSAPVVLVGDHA
Sequence of Serine/threonine-protein kinase haspin (Q8TF76 whole entry): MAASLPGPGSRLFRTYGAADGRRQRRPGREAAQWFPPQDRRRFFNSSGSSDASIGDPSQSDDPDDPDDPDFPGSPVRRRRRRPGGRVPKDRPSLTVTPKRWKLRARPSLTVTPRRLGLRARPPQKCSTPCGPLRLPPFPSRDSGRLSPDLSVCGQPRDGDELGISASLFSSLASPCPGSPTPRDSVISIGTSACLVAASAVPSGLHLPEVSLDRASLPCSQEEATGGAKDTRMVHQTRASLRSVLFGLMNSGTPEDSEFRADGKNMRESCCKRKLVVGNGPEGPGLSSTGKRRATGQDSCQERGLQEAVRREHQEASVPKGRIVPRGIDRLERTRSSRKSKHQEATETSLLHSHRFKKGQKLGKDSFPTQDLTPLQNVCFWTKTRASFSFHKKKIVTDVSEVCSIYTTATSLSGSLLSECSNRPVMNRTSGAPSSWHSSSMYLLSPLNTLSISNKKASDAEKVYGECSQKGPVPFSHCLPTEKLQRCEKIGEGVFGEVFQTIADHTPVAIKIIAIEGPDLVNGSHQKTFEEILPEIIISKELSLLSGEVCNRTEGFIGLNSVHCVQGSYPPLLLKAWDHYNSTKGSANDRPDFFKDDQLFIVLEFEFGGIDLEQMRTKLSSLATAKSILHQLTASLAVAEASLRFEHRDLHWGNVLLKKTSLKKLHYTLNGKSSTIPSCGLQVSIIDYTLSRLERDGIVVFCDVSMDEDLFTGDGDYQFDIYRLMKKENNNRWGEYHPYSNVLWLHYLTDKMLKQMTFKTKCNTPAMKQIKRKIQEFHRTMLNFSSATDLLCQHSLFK
Sequence of Serine/threonine-protein kinase NIM1 (Q8IY84 whole entry): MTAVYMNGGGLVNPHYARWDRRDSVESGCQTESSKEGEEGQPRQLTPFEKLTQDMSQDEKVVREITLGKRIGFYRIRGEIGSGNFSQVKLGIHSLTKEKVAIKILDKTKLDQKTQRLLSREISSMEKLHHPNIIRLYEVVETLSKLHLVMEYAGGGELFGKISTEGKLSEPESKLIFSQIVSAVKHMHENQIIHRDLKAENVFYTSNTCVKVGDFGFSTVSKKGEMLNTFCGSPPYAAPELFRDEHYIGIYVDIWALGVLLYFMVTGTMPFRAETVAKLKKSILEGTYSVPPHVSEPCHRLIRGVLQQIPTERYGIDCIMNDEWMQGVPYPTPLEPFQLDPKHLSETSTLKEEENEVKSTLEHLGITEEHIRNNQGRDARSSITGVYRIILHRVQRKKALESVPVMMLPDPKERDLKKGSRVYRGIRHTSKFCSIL

CCc1cccc(CC)c1NC(=O)c1nn(C)c2c1CCc1cnc(Nc3ccc(C(=O)NC4CCN(C)CC4)cc3OC(F)(F)F)nc1-2
IC50 (Activated CDC42 kinase 1): > 10000 nM | IC50 [1]: > 10000 nM | IC50 [2]: > 10000 nM | IC50 (Insulin receptor): > 10000 nM | IC50 [3]: > 10000 nM | IC50 [4]: > 10000 nM | IC50 [5]: > 10000 nM | IC50 [6]: > 10000 nM | IC50 [7]: > 10000 nM | IC50 [8]: > 10000 nM | IC50 (SF-268): 1370 nM | IC50 (BT-474): 1160 nM | IC50 (T47D): 2860 nM | IC50 (SF-295): 2880 nM | IC50 (SNB-19): 6930 nM | IC50 (HEL): 5490 nM | IC50 (TF-1): 6530 nM | IC50 (SKM-1): 10000 nM | IC50 (Calu-3): 1440 nM | IC50 (NCI-H226): 2010 nM | IC50 (NCI-H460): 2190 nM | IC50 (NCI-H1770): 4420 nM | IC50 (Granta-519): 1690 nM | IC50 (Toledo): 1720 nM | IC50 [9]: 9400 nM | IC50 (MIA PaCa-2): 2550 nM | IC50 (CAKI-1): 2000 nM | IC50 (SN12C): 1220 nM | Activity (U2OS [10]): Active | Activity (U2OS [11]): Active | Activity (HeLa [12]): Active | Activity (HeLa [13]): Active | Activity (HeLa [14]): Active | inhibition (HeLa [15]): Active | Activity (A2780 [16]): Active | growth inhibition (GI) (HCT-116 [17]): Active | Activity (HCT-116 [18]): Active | Activity (A2780 [19]): Active | Activity (HCT-116 [20]): 100% | Vd [21]: 5.45 L/kg | IC50 [22]: > 10000 nM | T1/2 [23]: 9.76 min
